Measured values as given in US6627604B2, “Memno peptides, process for their preparation and use thereof” (priority 2000, dated 2003).
In brackets after ≈: the same amount, converted by molar mass. Residues, ends and D or L forms follow the SMILES beside them. *: point of attachment. X1 = CC1CCC2C(C)(C)C(O)CCC2(C)C12Cc1c(O)cc3c(c1O2)CN(C(CC[S+](C)[O-])C(=O)*)C3=O

What was measured:
[1] = target: T1, SERCA2 (Canis lupus familiaris, UniProt O46674); assay: Colorimetric Ca2+ ATPase (SERCA2) activation test in dog heart microsomes; type: biochemical; settings: Ca2+ ATPase activity in dog heart microsomes, phosphate release at 620 nm
T1 construct: activity of the Ca^2+ ATPase in dog heart microsomes; from tissue; host or cells: dog heart microsomes
Source text: For the detection of the activators of SERCA2 which imitate the phosphorylation effect of PLB, a […] test may be run which determines the activity of the Ca^2+ ATPase in dog heart microsomes in the presence of test substances. The test may be carried out in 96-well microtiter plates. The enzymatic release of inorganic phosphate from ATP, which forms a blue colored complex with ammonium molybdate which can be measured at 620 nm in a spectrophotometer, may be measured.

[2] = system: Streptococcus pyogenes VR3; assay: Minimum inhibitory concentration; type: cell-based; settings: resistance against: Vancomycin
[3] = target: glucose-6-phosphate translocase (G-6-P—TL) (Homo sapiens, UniProt O43826); assay: Inhibition of glucose-6-phosphate translocase; type: biochemical
[4] = target: G-6-P phosphatase (Homo sapiens, UniProt P35575); assay: Inhibition of G-6-P phosphatase; type: biochemical
[5] = system: Staphylococcus aureus SG 511
[6] = system: Staphylococcus aureus 285
[7] = system: Staphylococcus aureus 503
[8] = system: Staphylococcus aureus FH 1982
[9] = system: Staphylococcus aureus 701E
[10] = system: Staphylococcus aureus 707E
[11] = system: Staphylococcus aureus 9 Tüb
[12] = system: Staph. epidermidis ZH 2c
[13] = system: Staph. epidermidis 763
[14] = system: Staph. epidermidis 5747IIW
[15] = system: Staph. epidermidis 291
[16] = system: Staph. epidermidis 799
[17] = system: Enterococcus faecium Md8B
[18] = system: Enterococcus faecium VR1
[19] = system: Enterococcus faecium VR2
[20] = system: Streptococcus pyogenes 308A
[21] = system: Streptococcus pyogenes 77A

T1 sequence (O46674 whole entry): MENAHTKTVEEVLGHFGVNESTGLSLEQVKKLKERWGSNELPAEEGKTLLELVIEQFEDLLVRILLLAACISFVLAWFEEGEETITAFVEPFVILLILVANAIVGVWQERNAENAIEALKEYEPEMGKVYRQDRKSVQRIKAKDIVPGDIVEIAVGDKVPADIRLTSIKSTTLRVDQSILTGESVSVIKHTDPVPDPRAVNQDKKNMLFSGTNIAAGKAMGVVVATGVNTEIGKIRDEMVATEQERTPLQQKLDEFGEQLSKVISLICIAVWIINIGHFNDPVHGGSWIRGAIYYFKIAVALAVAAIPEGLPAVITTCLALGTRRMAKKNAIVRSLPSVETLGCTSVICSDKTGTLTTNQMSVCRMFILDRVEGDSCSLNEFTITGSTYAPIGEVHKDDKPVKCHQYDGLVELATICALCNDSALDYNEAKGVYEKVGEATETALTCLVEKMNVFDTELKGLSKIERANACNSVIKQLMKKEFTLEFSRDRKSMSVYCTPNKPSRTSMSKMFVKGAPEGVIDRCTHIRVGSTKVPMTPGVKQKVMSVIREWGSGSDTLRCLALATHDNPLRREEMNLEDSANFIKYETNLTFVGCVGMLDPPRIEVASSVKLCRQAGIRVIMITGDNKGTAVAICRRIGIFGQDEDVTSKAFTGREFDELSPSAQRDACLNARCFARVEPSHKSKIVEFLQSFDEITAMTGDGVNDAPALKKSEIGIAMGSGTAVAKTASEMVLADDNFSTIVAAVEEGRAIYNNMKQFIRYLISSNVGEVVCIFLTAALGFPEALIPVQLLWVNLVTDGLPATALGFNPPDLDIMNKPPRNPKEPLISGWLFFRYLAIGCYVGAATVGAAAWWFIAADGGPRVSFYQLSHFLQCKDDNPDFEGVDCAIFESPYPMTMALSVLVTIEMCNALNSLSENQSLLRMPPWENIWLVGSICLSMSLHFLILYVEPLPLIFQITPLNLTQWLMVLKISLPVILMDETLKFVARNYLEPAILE
Chain of G-6-P phosphatase (P35575 whole entry): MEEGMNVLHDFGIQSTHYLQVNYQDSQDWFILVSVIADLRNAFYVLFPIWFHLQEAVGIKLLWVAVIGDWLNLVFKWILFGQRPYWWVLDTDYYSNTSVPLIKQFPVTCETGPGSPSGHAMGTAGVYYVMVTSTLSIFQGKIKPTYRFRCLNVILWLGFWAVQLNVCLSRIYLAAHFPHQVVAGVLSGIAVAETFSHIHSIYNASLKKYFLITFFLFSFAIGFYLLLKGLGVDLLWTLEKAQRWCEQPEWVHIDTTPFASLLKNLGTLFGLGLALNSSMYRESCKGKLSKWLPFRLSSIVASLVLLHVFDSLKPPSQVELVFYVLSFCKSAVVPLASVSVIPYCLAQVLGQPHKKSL
Chain of glucose-6-phosphate translocase (G-6-P—TL) (O43826 whole entry, species assumed): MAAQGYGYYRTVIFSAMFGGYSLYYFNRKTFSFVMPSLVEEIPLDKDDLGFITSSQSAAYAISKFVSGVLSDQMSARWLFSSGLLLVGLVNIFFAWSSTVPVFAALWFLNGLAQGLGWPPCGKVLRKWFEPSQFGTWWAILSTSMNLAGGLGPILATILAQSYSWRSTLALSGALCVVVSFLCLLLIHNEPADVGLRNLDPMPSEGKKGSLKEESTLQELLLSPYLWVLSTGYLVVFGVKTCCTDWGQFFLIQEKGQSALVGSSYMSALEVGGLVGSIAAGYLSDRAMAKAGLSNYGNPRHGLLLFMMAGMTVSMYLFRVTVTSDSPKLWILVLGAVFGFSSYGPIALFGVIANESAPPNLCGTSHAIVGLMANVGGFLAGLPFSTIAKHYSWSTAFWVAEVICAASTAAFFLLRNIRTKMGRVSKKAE

CC(C)CC(NC(=O)C1CCCN1C(=O)C(CCC(N)=O)NC(=O)C(Cc1c[nH]cn1)NC(=O)C1CCCN1C(=O)C(CCC(N)=O)NC(=O)C(Cc1cnc[nH]1)NC(=O)C(CC[S+](C)[O-])N1Cc2c(cc(O)c3c2OC2(C3)C(C)CCC3C(C)(C)C(O)CCC32C)C1=O)C(=O)N1CCCC1C(=O)N1CCCC1C(=O)O (stereo not drawn) [memno peptide A] (X1-HQPHQPLPP-OH; configuration not given here)
activates SERCA2 in concentrations from [1]: ≥ 12.5 µM | MIC [2]: >64 µg/mL | inhibitory action on glucose-6-phosphate translocase (G-6-P—TL) [3]: exhibits selective activities against G-6-P—TL | inhibition of the coenzyme G-6-P phosphatase [4]: does not inhibit | MIC [5]: 16 µg/mL (≈ 10.2 µM) | MIC [6]: 16 µg/mL (≈ 10.2 µM) | MIC [7]: 16 µg/mL (≈ 10.2 µM) | MIC [8]: 16 µg/mL (≈ 10.2 µM) | MIC [9]: 16 µg/mL (≈ 10.2 µM) | MIC [10]: 16 µg/mL (≈ 10.2 µM) | MIC [11]: 16 µg/mL (≈ 10.2 µM) | MIC [12]: 16 µg/mL (≈ 10.2 µM) | MIC [13]: >16 µg/mL | MIC [14]: 32 µg/mL (≈ 20.4 µM) | MIC [15]: 8 µg/mL (≈ 5.11 µM) | MIC [16]: 8 µg/mL (≈ 5.11 µM) | MIC [17]: 8 µg/mL (≈ 5.11 µM) | MIC [18]: >64 µg/mL | MIC [19]: >64 µg/mL | MIC [20]: 8 µg/mL (≈ 5.11 µM) | MIC [21]: 4 µg/mL (≈ 2.55 µM)
